Data: patent US20060128724A1, “Pyrazole-substituted aminoheteroaryl compounds as protein kinase inhibitors” (AGOURON PHARMACEUTICALS, INC., priority 2004, published 2006)
Like-named read-outs stand apart in the source and are kept apart here.

Biological target: T1, c-MET (HGFR) (Homo sapiens, UniProt P08581)
T1 construct: purchased Upstate 14-526
Test: HGFR Continuous-Coupled Spectrophotometric Assay
Assay type: biochemical
Settings: Met-2 substrate peptide, 50 nM HGFR, 37° C.
Excerpt: The following in vitro assay may be used to determine the level of activity and effect of the different compounds of the present invention on one or more of the PKs. Similar assays can be designed along the same lines for any PK using techniques well known in the art.
The general procedure is as follows: compounds and kinase assay reagents are introduced into test wells. The assay is initiated by addition of the kinase enzyme. Enzyme inhibitors reduce the measured activity of the enzyme.
In the continuous-coupled spectrophotometric assay the time-dependent production of ADP by the kinase is determined by analysis of the rate of consumption of NADH by measurement of the decrease in absorbance at 340 nm. As the PK produces ADP it is re-converted to ATP by reaction with phosphoenol pyruvate and pyruvate kinase. Pyruvate is also produced in this reaction. Pyruvate is subsequently converted to lactate by reaction with lactate dehydrogenase, which simultaneously converts NADH to NAD.
HGFR Continuous-Coupled Spectrophotometric Assay
This assay analyzes the tyrosine kinase activity of HGFR on the Met-2 substrate peptide, a peptide derived from the activation loop of the HGFR.
• 1. […] Dissolve up in 200 mM HEPES, pH 7.5 at 10 mM stock. • 3. 1 M PEP (phospho-enol-pyruvate) in 200 mM HEPES, pH 7.5 • 4. 100 mM NADH (B-Nicotinamide Adenine Dinucleotide, Reduced Form) in 200 mM HEPES, pH 7.5 • 5. 4 M MgCl2 (Magnesium Chloride) in ddH2O • 6. 1 M DTT (Dithiothreitol) in 200 mM HEPES, pH 7.5 • 7. 15 Units/mL LDH (Lactic Dehydrogenase) • 8. 15 Units/mL PK (Pyruvate Kinase) • 9. 5M NaCl dissolved in ddH2O • 10. Tween-20 (Protein Grade) 10% Solution • 11. 1 M HEPES buffer: (N-[2-Hydroxethyl]piperazine-N-[2-ethanesulfonic acid]) Sodium Salt. Dissolve in ddH2O, adjust pH to 7.5, bring volume to 1 L. Filter at 0.1 μm. • 12. […] 100% DMSO (SIGMA) • 14. […] Beckman DU-650 w/micro cell holders • 18. Beckman 4-position micro cell cuvette Procedure:
Prep Dilution Buffer (DB) for Enzyme (For 30 mL prep) • 1. DB final concentration is 2 mM DTT, 25 mM NaCl2, 5 mM MgCl2, 0.01% Tween-20, and 50 mM HEPES buffer, pH 7.5. • 2. Make up 50 mM HEPES by adding 1.5 mL 1 M HEPES into 28.1 mL of ddH2O. Add rest of the reagents. Into 50 mL conical vial, add 60 μL of 1M DTT, 150 μL 5M NaCl2, 150 μL 1M MgCl2, and 30 μL of 10% Tween-20 to give total volume of 30 mL. • 3. […] Aliquot out DB at 1 mL/tube and label tubes as “DB HGFR” • 5. Note: This can be prepared and stored ahead of time. • 6. Freeze un-used aliquots in microcentrifuge tubes at −20° C. freezer. […] For compound dilution plate, add 4 μL of 10 mM stock into column 1 of plate, and bring volume to 100 μL with 100% DMSO. • 2. Set up the Precision 2000 dilution method. A final concentration of 200 μM compound in 50% DMSO, 100 mM HEPES (1:2 serial dilution). Prep Coupled Enzymatic Buffer:
1. Final concentration in assay:
• 2. For a 10 mL reaction buffer add 10 μL of 1M PEP, 33 μL of 100 mM NADH, 50 μL of 4M MgCl2, 20 μL of 1M DTT, 6 μL of 500 mM ATP, and 500 μL of 10 mM Met-2 peptide into 100 mM HEPES buffer pH 7.5 and vortex/mix. • 3. Add coupling enzymes, LDH and PK, into reaction mix. Mix by gentle inversion. Running Samples
1. Spectrophotometer settings:
• 2. Add 85 μL of CE reaction mix into each well of assay plate. • 3. Add 5 μL of diluted compound into a well of the assay plate. • 4. Add 5 μL of 50% DMSO for negative control into last column of assay plate. • 5. Mix with multi-channel pipettor or orbital shaker. • 6. Pre-incubate for 10 minutes at 37° C. • 7. Add 10 μL of 500 nM HGFR to each well of assay plate; the final HGFR concentration is 50 nM in a total final volume of 100 μL. • 8. Measure activity for 10 minutes at λ=340 nm and 37° C.

T1 sequence (P08581 974-1390 limits assumed): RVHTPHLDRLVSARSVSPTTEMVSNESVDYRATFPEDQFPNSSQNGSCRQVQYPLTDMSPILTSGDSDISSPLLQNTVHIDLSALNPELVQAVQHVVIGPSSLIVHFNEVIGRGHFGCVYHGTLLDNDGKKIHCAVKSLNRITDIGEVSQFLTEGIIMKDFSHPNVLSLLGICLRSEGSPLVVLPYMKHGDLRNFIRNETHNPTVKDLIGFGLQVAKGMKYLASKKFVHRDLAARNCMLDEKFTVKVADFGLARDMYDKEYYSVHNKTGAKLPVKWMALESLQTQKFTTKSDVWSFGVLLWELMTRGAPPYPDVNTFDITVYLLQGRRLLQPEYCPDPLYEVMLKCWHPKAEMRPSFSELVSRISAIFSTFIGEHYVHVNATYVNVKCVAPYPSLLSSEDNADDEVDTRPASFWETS

| Compound | Ki (read-out: Met Ki) [nM] | Ki (read-out: c-Met Ki) [nM] |
| --- | --- | --- |
| 4-(4-{6-Amino-5-[1- (2,6-dichloro-3-fluoro- phenyl)-ethoxy]-pyridin- 3-yl}-pyrazoI-1-yl)- piperidine-1- carboxylic acid dimethylamide [Example 120] | 16 | – |
| CCOC(=O)[C@H]1CC1Cn1cc(-c2cnc(N)c(OC(C)c3c(Cl)ccc(F)c3Cl)c2)cn1 (stereo in doubt) [Example 9, ethyl 2-[(4-{6-amino-5-[1-(2,6-dichloro-3-fluorophenyl)ethoxy]pyridin-3-yl}-1H-pyrazol-1-yl)methyl]cyclopropanecarboxylate] | – | 42 |
| CNC(=O)[C@H]1C[C@@H]1Cn1cc(-c2cnc(N)c(OC(C)c3c(Cl)ccc(F)c3Cl)c2)cn1 (stereo in doubt) [Example 10, 2-[(4-{6-amino-5-[1-(2,6-dichloro-3-fluorophenyl)ethoxy]pyridin-3-yl}-1H-pyrazol-1-yl)methyl]-N-methylcyclopropanecarboxamide] | – | 71 |
| CC(Oc1cc(-c2cnn(C[C@H]3C[C@@H]3C(=O)N(C)C)c2)cnc1N)c1c(Cl)ccc(F)c1Cl (stereo in doubt) [Example 11, 2-[(4-{6-amino-5-[1-(2,6-dichloro-3-fluorophenyl)ethoxy]pyridin-3-yl}-1H-pyrazol-1-yl)methyl]-N,N-dimethylcyclopropanecarboxamide] | – | 144 |
| CC(Oc1cc(-c2cnn([C@H](C)C(=O)NCCCN(C)C)c2)cnc1N)c1c(Cl)ccc(F)c1Cl (stereo in doubt) [Example 74, 2-(4-{6-Amino-5-[1-(2,6-dichloro-3-fluoro-phenyl)-ethoxy]-pyridin-3-yl}-pyrazol-1-yl)-N-(3-dimethylamino-propyl)-propionamide] | – | 40 |
| CC(Oc1cc(-c2cnn(C[C@H]3COC(C)(C)O3)c2)cnc1N)c1c(Cl)ccc(F)c1Cl (stereo in doubt) [Example 86, 3-[1-(2,6-Dichloro-3-fluoro-phenyl)-ethoxy]-5-[1-(2,2-dimethyl-[1,3]dioxolan-4-ylmethyl)-1H-pyrazol-4-yl]-pyridin-2-ylamine] | – | 62 |
| CC(Oc1cc(-c2cnn(C[C@H](O)CO)c2)cnc1N)c1c(Cl)ccc(F)c1Cl (stereo in doubt) [Example 87, 3-(4-{6-Amino-5-[1-(2,6-dichloro-3-fluoro-phenyl)-ethoxy]-pyridin-3-yl}-pyrazol-1-yl)-propane-1,2-diol] | – | 28 |
| C[C@@H](Oc1nc(Br)cnc1N)c1c(Cl)ccc(F)c1Cl [5-bromo-3-[(R)-1-(2,6-dichloro-3-fluoro-phenyl)-ethoxy]-pyrazin-2-ylamine] | – | 796 |
| CC(Oc1cc(-c2cnn(CC3CN(C(=O)OC(C)(C)C)C3)c2)cnc1N)c1c(Cl)ccc(F)c1Cl (stereo not shown) [Example 1, tert-butyl 3-[(4-{6-amino-5-[1-(2,6-dichloro-3-fluorophenyl)ethoxy]pyridin-3-yl}-1H-pyrazol-1-yl)methyl]azetidine-1-carboxylate] | – | 66 |
| CC(Oc1cc(-c2cnn(CC3(O)CCN(C(=O)OC(C)(C)C)CC3)c2)cnc1N)c1c(Cl)ccc(F)c1Cl (stereo not shown) [Example 3, tert-butyl 4-[(4-{6-amino-5-[1-(2,6-dichloro-3-fluorophenyl)ethoxy]pyridin-3-yl}1H-pyrazol-1-yl)methyl]-4-hydroxypiperidine-1-carboxylate] | – | 104 |
| CC(Oc1cc(-c2cnn(CC3(O)CCNCC3)c2)cnc1N)c1c(Cl)ccc(F)c1Cl (stereo not shown) [Example 4, 4-[(4-{6-amino-5-[1-(2,6-dichloro-3-fluorophenyl)ethoxy]pyridin-3-yl}1H-pyrazol-1-yl)methyl]piperidin-4-ol] | – | 62 |
| CC(Oc1cc(-c2cnn(C3CN(CC4CC4)C3)c2)cnc1N)c1c(Cl)ccc(F)c1Cl (stereo not shown) [Example 6, 5-{1-[1-(cyclopropylmethyl)azetidin-3-yl]-1H-pyrazol-4-yl}-3-[1-(2,6-dichloro-3-fluorophenyl)ethoxy]pyridin-2-amine] | – | 38 |
| CC(Oc1cc(-c2cnn(C3CN(C(=O)CN(C)C)C3)c2)cnc1N)c1c(Cl)ccc(F)c1Cl (stereo not shown) [Example 7, 3-[1-(2,6-dichloro-3-fluorophenyl)ethoxy]-5-(1-{1-[(dimethylamino)acetyl]azetidin-3-yl}-1H-pyrazol-4-yl)pyridin-2-amine] | – | 22 |
| CC(Oc1cc(-c2cnn(C3CN(CC#N)C3)c2)cnc1N)c1c(Cl)ccc(F)c1Cl (stereo not shown) [Example 8, [3-(4-{6-amino-5-[1-(2,6-dichloro-3-fluorophenyl)ethoxy]pyridin-3-yl}-1H-pyrazol-1-yl)azetidin-1-yl]acetonitrile] | – | 25 |
| CC(Oc1cc(-c2cnn(C(C)(C)C(=O)O)c2)cnc1N)c1c(Cl)ccc(F)c1Cl (stereo not shown) [Example 12, 2-(4-{6-Amino-5-[1-(2,6-dichloro-3-fluoro-phenyl)-ethoxy]-pyridin-3-yl}-pyrazol-1-yl)-2-methyl-propionic acid] | – | 180 |
| CC(Oc1cc(-c2cnn(C)c2N)cnc1N)c1c(Cl)ccc(F)c1Cl (stereo not shown) [Example 13, 5-(5-Amino-1-methyl-1H-pyrazol-4-yl)-3-[1-(2,6-dichloro-3-fluoro-phenyl)-ethoxy]-pyridin-2-ylamine] | – | 130 |
| Cc1[nH]ncc1-c1cnc(N)c(OC(C)c2c(Cl)ccc(F)c2Cl)c1 (stereo not shown) [Example 14, 3-[1-(2,6-Dichloro-3-fluoro-phenyl)-ethoxy]-5-(5-methyl-1H-pyrazol-4-yl)-pyridin-2-ylamine] | – | 700 |
| CC(Oc1cc(-c2cnn(C(C)(C)C(=O)NCCCN(C)C)c2)cnc1N)c1c(Cl)ccc(F)c1Cl (stereo not shown) [Example 16, 2-(4-{6-Amino-5-[1-(2,6-dichloro-3-fluoro-phenyl)-ethoxy]-pyridin-3-yl}-pyrazol-1-yl)-N-(3-dimethylamino-propyl)-isobutyramide] | – | 60 |
| CC(Oc1cc(-c2cnn(C(C)(C)C(=O)N3CCNCC3)c2)cnc1N)c1c(Cl)ccc(F)c1Cl (stereo not shown) [Example 17, 2-(4-{6-Amino-5-[1-(2,6-dichloro-3-fluoro-phenyl)-ethoxy]-pyridin-3-yl}-pyrazol-1-yl)-2-methyl-1-piperazin-1-yl-propan-1-one] | – | 440 |
| CC(Oc1cc(-c2cnn(C(C)(C)C(=O)N3CC[C@@H](O)C3)c2)cnc1N)c1c(Cl)ccc(F)c1Cl (stereo partly drawn) [Example 18, 2-(4-{6-Amino-5-[1-(2,6-dichloro-3-fluoro-phenyl)-ethoxy]-pyridin-3-yl}-pyrazol-1-yl)-1-((R)-3-hydroxy-pyrrolidin-1-yl)-2-methyl-propan-1-one] | – | 270 |
| CC(Oc1cc(-c2cnn(C(C)(C)C(=O)NCCN3CCOCC3)c2)cnc1N)c1c(Cl)ccc(F)c1Cl (stereo not shown) [Example 19, 2-(4-{6-Amino-5-[1-(2,6-dichloro-3-fluoro-phenyl)-ethoxy]-pyridin-3-yl}-pyrazol-1-yl)-N-(2-morpholin-4-yl-ethyl)-isobutyramide] | – | 140 |
| CC(Oc1cc(-c2cnn(C(C)(C)C(=O)NCCN3CCCC3)c2)cnc1N)c1c(Cl)ccc(F)c1Cl (stereo not shown) [Example 21, 2-(4-{6-Amino-5-[1-(2,6-dichloro-3-fluoro-phenyl)-ethoxy]-pyridin-3-yl}-pyrazol-1-yl)-N-(2-pyrrolidin-1-yl-ethyl)-isobutyramide] | – | 60 |
